Measurements taken from article PMC8371902, “Phase 1 study of M2698, a p70S6K/AKT dual inhibitor, in patients with advanced cancer” (Journal of Hematology & Oncology, 2021).
Like-named read-outs stand apart in the source and are kept apart here.

Test system: patients with advanced metastatic cancer
Source text: In this phase 1 study, dose escalation was followed by expansion cohorts of once-daily, oral M2698 in continuous 21-day cycles. Primary objectives were to determine the maximum tolerated dose (MTD), dose-limiting toxicities (DLTs), and recommended phase 2 dose (RP2D). Secondary objectives were to assess safety and tolerability, pharmacokinetics (PK, including food effect) and antitumor activity. Pharmacodynamic biomarker assessments were exploratory. Treatment was discontinued if there was disease progression, toxicity or consent withdrawal.
In Part 1, M2698 monotherapy was investigated in a dose escalation with a food effect cohort. In Part 2, M2698 was investigated as monotherapy (expansion cohort) to further characterize safety, tolerability and pharmacokinetics, and assess antitumor activity in PAM + patients without confounding markers (exploratory).
Dose escalation analysis included all patients who experienced a DLT and those who received ≥ 80% of planned M2698 doses in cycle 1 without experiencing a DLT. Safety analysis included all patients who received ≥ 1 dose of M2698. PK analysis included all patients who received ≥ 1 dose of M2698 and had measurable plasma concentrations. Dose proportionality was tested using the power model (linear regression approach on the log -transformed scale).

## NC(=O)c1cccc2c(N[C@H](CN3CCC3)c3ccc(Cl)c(C(F)(F)F)c3)ncnc12 [M2698]
240 mg n=17
  M2698-related TEAE: Pruritus generalised: 0
  M2698-related TEAE: Psychiatric disorders: 3
  M2698-related TEAE: Rash: 0
  M2698-related TEAE: Rash maculo-papular: 0
  M2698-related TEAE: Skin and subcutaneous tissue disorders: 0
  M2698-related TEAE: Subjects with at least one event: 9
  M2698-related TEAE: Transaminases increased: 0
  M2698-related TEAE: Tremor: 1
  M2698-related TEAE: Vision blurred: 0
  M2698-related TEAE: Vomiting: 1
  M2698-related TEAE: White blood cell count decreased: 0
320 mg n=12
  M2698-related TEAE: Abnormal dreams: 2
  M2698-related TEAE: Affect lability: 0
  M2698-related TEAE: Alanine aminotransferase increased: 0
  M2698-related TEAE: Amylase increased: 0
  M2698-related TEAE: Anaemia: 1
  M2698-related TEAE: Angina pectoris: 0
  M2698-related TEAE: Anxiety: 1
  M2698-related TEAE: Aphasia: 1
  M2698-related TEAE: Ataxia: 1
  M2698-related TEAE: Blood and lymphatic system disorders: 1
  M2698-related TEAE: Blood creatine phosphokinase increased: 0
  M2698-related TEAE: Blood creatinine increased: 1
  M2698-related TEAE: Cardiac disorders: 0
  M2698-related TEAE: Cognitive disorder: 0
  M2698-related TEAE: Constipation: 2
  M2698-related TEAE: Decreased appetite: 1
  M2698-related TEAE: Delusion: 1
  M2698-related TEAE: Depression: 1
  M2698-related TEAE: Diarrhoea: 4
  M2698-related TEAE: Diarrhoea haemorrhagic: 0
  M2698-related TEAE: Dizziness: 0
  M2698-related TEAE: Dry eye: 0
  M2698-related TEAE: Dry mouth: 0
  M2698-related TEAE: Dysgeusia: 0
  M2698-related TEAE: Dyspepsia: 1
  M2698-related TEAE: Dysphagia: 0
  M2698-related TEAE: Energy increased: 0
  M2698-related TEAE: Erythema: 0
  M2698-related TEAE: Euphoric mood: 0
  M2698-related TEAE: Eye disorders: 0
  M2698-related TEAE: Fatigue: 1
  M2698-related TEAE: Gamma-glutamyltransferase increased: 0
  M2698-related TEAE: Gastrointestinal disorders: 8
  M2698-related TEAE: Gastrooesophageal reflux disease: 0
  M2698-related TEAE: General disorders and administration site conditions: 2
  M2698-related TEAE: Headache: 0
  M2698-related TEAE: Hyperhidrosis: 1
  M2698-related TEAE: Hypokalaemia: 1
  M2698-related TEAE: Hypomagnesaemia: 1
  M2698-related TEAE: Insomnia: 1
  M2698-related TEAE: Investigations: 1
  M2698-related TEAE: Lipase increased: 0
  M2698-related TEAE: Lymphopenia: 0
  M2698-related TEAE: Metabolism and nutrition disorders: 2
  M2698-related TEAE: Mucosal inflammation: 1
  M2698-related TEAE: Nausea: 6
  M2698-related TEAE: Nervous system disorders: 4
  M2698-related TEAE: Nightmare: 0
  M2698-related TEAE: Onychomadesis: 0
  M2698-related TEAE: Paranoia: 1
  M2698-related TEAE: Photosensitivity reaction: 1
  M2698-related TEAE: Posterior reversible encephalopathy syndrome: 0
  M2698-related TEAE: Pruritus generalised: 1
  M2698-related TEAE: Psychiatric disorders: 3
  M2698-related TEAE: Rash: 0
  M2698-related TEAE: Rash maculo-papular: 0
  M2698-related TEAE: Skin and subcutaneous tissue disorders: 3
  M2698-related TEAE: Subjects with at least one event: 9
  M2698-related TEAE: Transaminases increased: 0
  M2698-related TEAE: Tremor: 3
  M2698-related TEAE: Vision blurred: 0
  M2698-related TEAE: Vomiting: 0
  M2698-related TEAE: White blood cell count decreased: 0
380 mg n=4
  M2698-related TEAE: Abnormal dreams: 0
  M2698-related TEAE: Affect lability: 0
  M2698-related TEAE: Alanine aminotransferase increased: 0
  M2698-related TEAE: Amylase increased: 0
  M2698-related TEAE: Anaemia: 0
  M2698-related TEAE: Angina pectoris: 0
  M2698-related TEAE: Anxiety: 0
  M2698-related TEAE: Aphasia: 0
  M2698-related TEAE: Ataxia: 0
  M2698-related TEAE: Blood and lymphatic system disorders: 0
  M2698-related TEAE: Blood creatine phosphokinase increased: 1
  M2698-related TEAE: Blood creatinine increased: 0
  M2698-related TEAE: Cardiac disorders: 0
  M2698-related TEAE: Cognitive disorder: 0
  M2698-related TEAE: Constipation: 0
  M2698-related TEAE: Decreased appetite: 0
  M2698-related TEAE: Delusion: 0
  M2698-related TEAE: Depression: 0
  M2698-related TEAE: Diarrhoea: 0
  M2698-related TEAE: Diarrhoea haemorrhagic: 1
  M2698-related TEAE: Dizziness: 0
  M2698-related TEAE: Dry eye: 0
  M2698-related TEAE: Dry mouth: 0
  M2698-related TEAE: Dysgeusia: 0
  M2698-related TEAE: Dyspepsia: 0
